From patent publication US20220281848A1, “PYRAZOLE-SUBSTITUTED PYRROLIDINONES AS HERBICIDES” (FMC Corporation, priority 2019, published 2022)

Test system: plants
Experiment: Test D pre-emergence, other plants of Tables D1 and D3
Format: in vivo
Conditions: for damage to plant, ALOMY / damage to plant, AVEFA / damage to plant, BEAVA / damage to plant, BROTE / damage to plant, BRSNN / damage to plant, CHEAL / damage to plant, GALAP / damage to plant, HORVW / damage to plant, KCHSC / damage to plant, LOLPE / damage to plant, POAAN / damage to plant, POLCO / damage to plant, SINAR / damage to plant, STEME / damage to plant, VERPE: pre-emergence, 100=total damage, 0=no damage
Protocol: A formulation containing 50 g/L of the test chemical was prepared by dissolving the active ingredient in a mixture of organic solvents and emulsifier, details of which are provided in the table. This formulation was then mixed with a small, variable amount of acetone to aid dissolution, before addition of a 0.2% v/v aqueous solution of an adjuvant, as the aqueous diluent, to form an aqueous spray solution which contains a predetermined concentration of the active ingredient.
This aqueous spray solution was then sprayed onto plants including maize and wheat that had been seed treated with a herbicide safener, after one day's cultivation (for pre-emergence) or after about 12 days' cultivation (for post-emergence). The plants were grown from seeds sown in standard soil, placed in a glasshouse under controlled conditions (at 24/18° C. or 20/16° C., day/night; 16 h light; 65% humidity). After spray application the plants were then grown in a glasshouse under the same conditions and watered twice daily. After 15 d for post-emergence and 20 DAA for pre-emergence the test was evaluated (100=total damage to plant; 0=no damage to plant).

CN1CC(c2cc(C(F)(F)F)n(C)n2)C(C(=O)Nc2ccc(F)c(F)c2F)C1=O (racemic) [Compound 17]
30: damage to plant, POAAN (rate 60, 20 DAA) | damage to plant, VERPE (rate 130, 20 DAA) | damage to plant, STEME (rate 250, 20 DAA) | damage to plant, KCHSC (rate 500, 20 DAA) | damage to plant, POLCO (rate 500, 20 DAA)
0: damage to plant (100=total damage to plant; 0=no damage to plant), SORVU (SORVU, preemergent, rate 500, 20 DAA) | damage to plant, ALOMY (rate 15, 20 DAA) | damage to plant, AVEFA (rate 15, 20 DAA) | damage to plant, BEAVA (rate 15, 20 DAA) | damage to plant, BROTE (rate 15, 20 DAA) | damage to plant, BRSNN (rate 15, 20 DAA) | damage to plant, CHEAL (rate 15, 20 DAA) | damage to plant, GALAP (rate 15, 20 DAA) | damage to plant, HORVW (rate 15, 20 DAA) | damage to plant, KCHSC (rate 15, 20 DAA) | damage to plant, LOLPE (rate 15, 20 DAA) | damage to plant, POAAN (rate 15, 20 DAA) | damage to plant, POLCO (rate 15, 20 DAA) | damage to plant, SINAR (rate 15, 20 DAA) | damage to plant, STEME (rate 15, 20 DAA) | damage to plant, VERPE (rate 15, 20 DAA) | damage to plant, ALOMY (rate 30, 20 DAA) | damage to plant, AVEFA (rate 30, 20 DAA) | damage to plant, BEAVA (rate 30, 20 DAA) | damage to plant, BROTE (rate 30, 20 DAA) | damage to plant, BRSNN (rate 30, 20 DAA) | damage to plant, CHEAL (rate 30, 20 DAA) | damage to plant, GALAP (rate 30, 20 DAA) | damage to plant, HORVW (rate 30, 20 DAA) | damage to plant, KCHSC (rate 30, 20 DAA) | damage to plant, LOLPE (rate 30, 20 DAA) | damage to plant, POLCO (rate 30, 20 DAA) | damage to plant, SINAR (rate 30, 20 DAA) | damage to plant, STEME (rate 30, 20 DAA) | damage to plant, VERPE (rate 30, 20 DAA) | damage to plant, ALOMY (rate 60, 20 DAA) | damage to plant, AVEFA (rate 60, 20 DAA) | damage to plant, BEAVA (rate 60, 20 DAA) | damage to plant, BROTE (rate 60, 20 DAA) | damage to plant, BRSNN (rate 60, 20 DAA) | damage to plant, GALAP (rate 60, 20 DAA) | damage to plant, HORVW (rate 60, 20 DAA) | damage to plant, KCHSC (rate 60, 20 DAA) | damage to plant, POLCO (rate 60, 20 DAA) | damage to plant, SINAR (rate 60, 20 DAA) | damage to plant, STEME (rate 60, 20 DAA) | damage to plant, VERPE (rate 60, 20 DAA) | damage to plant, BEAVA (rate 130, 20 DAA) | damage to plant, BROTE (rate 130, 20 DAA) | damage to plant, BRSNN (rate 130, 20 DAA) | damage to plant, GALAP (rate 130, 20 DAA) | damage to plant, KCHSC (rate 130, 20 DAA) | damage to plant, POLCO (rate 130, 20 DAA) | damage to plant, SINAR (rate 130, 20 DAA) | damage to plant, BEAVA (rate 250, 20 DAA) | damage to plant, BRSNN (rate 250, 20 DAA) | damage to plant, GALAP (rate 250, 20 DAA) | damage to plant, SINAR (rate 250, 20 DAA) | damage to plant, SINAR (rate 500, 20 DAA)
40: damage to plant, LOLPE (rate 130, 20 DAA) | damage to plant, BROTE (rate 250, 20 DAA) | damage to plant, HORVW (rate 250, 20 DAA)
10: damage to plant, HORVW (rate 130, 20 DAA) | damage to plant, STEME (rate 130, 20 DAA) | damage to plant, KCHSC (rate 250, 20 DAA) | damage to plant, BEAVA (rate 500, 20 DAA)
50: damage to plant, ALOMY (rate 130, 20 DAA) | damage to plant, CHEAL (rate 130, 20 DAA)
90: damage to plant, HORVW (rate 500, 20 DAA) | damage to plant, POAAN (rate 500, 20 DAA) | damage to plant, VERPE (rate 500, 20 DAA)
70: damage to plant, POAAN (rate 130, 20 DAA) | damage to plant, AVEFA (rate 250, 20 DAA) | damage to plant, CHEAL (rate 500, 20 DAA)
80: damage to plant, LOLPE (rate 250, 20 DAA) | damage to plant, POAAN (rate 250, 20 DAA) | damage to plant, ALOMY (rate 500, 20 DAA) | damage to plant, AVEFA (rate 500, 20 DAA) | damage to plant, LOLPE (rate 500, 20 DAA)
20: damage to plant, POAAN (rate 30, 20 DAA) | damage to plant, LOLPE (rate 60, 20 DAA) | damage to plant, POLCO (rate 250, 20 DAA) | damage to plant, BRSNN (rate 500, 20 DAA) | damage to plant, GALAP (rate 500, 20 DAA)
60: damage to plant, AVEFA (rate 130, 20 DAA) | damage to plant, ALOMY (rate 250, 20 DAA) | damage to plant, CHEAL (rate 250, 20 DAA) | damage to plant, VERPE (rate 250, 20 DAA) | damage to plant, BROTE (rate 500, 20 DAA) | damage to plant, STEME (rate 500, 20 DAA)
